Earlier results on one molecule are cited in patent US20070232685A1, “CRYSTALLINE FORMS OF N-(BENZO[B]THIEN-3-YLMETHYL)-SULFAMIDE” (priority 2006, published 2007).

The test system of the series is carbonic anhydrase. Particulars: background statement on a known anticonvulsant; no method given.

Regarding `CC1(C)O[C@@H]2[C@@H](CO[C@@]3(COS(N)(=O)=O)OC(C)(C)O[C@@H]23)O1` [Topiramate], the carbonic anhydrase inhibition result is listed as “single digit micromolar”.
